Values after ≈ are worked out from the molar mass of the structure shown. “Also recorded” adds a separate entry of the source. Read-outs that look alike come from different tables or passages of the source.

Holding throughout (type): physicochemical
Series [1] in a line: Hygroscopicity determination by DVS. As for the experimental part:
The hygroscopicity of the Crystal Form A of Compound BMX was determined using Surface Measurement Systems Ltd. DVS resolution equipment. The sample was loaded into balance pan, typically 10-30 mg, and equilibrated at 0% relative humidity (RH). When the material has dried, the RH is increased with 10% per step for 1 hour per increment, ending at 95% RH. After completion of the sorption cycle, the sample was dried using the same method. […] The software used for data collection is DVS Control Software for 21 CFR Part 11 v1.0.3.0. Data analysis is performed using DVS Standard Analysis Suite v7.2.0.9 (Standard).

Series [2] can be described thus: Solubility of Crystal Form A in process solvents and aqueous buffer systems. The settings on record: for solubility at 24 h: thermodynamic from solid. The protocol: The solubility of this form was tested in the process solvents (Ethyl acetate and hexane) and in aqueous buffer systems. 100 mg of Crystal Form A of Compound BMX was weighed into 4 mL vials with 2 mL of the specified solvent/aqueous buffer system being added. These solutions were shaken at room temperature for 24 hours. The pH was monitored in time and remained in the correct range. Samples were filtered and diluted (5× in ACN/MeOH 1/1) and measured using H PLC. The concentration of the samples is determined using a calibration line.

Series [3] can be described thus: Photo stress stability, amorphous form versus Crystal Form A. As to conditions: for Degradation: 48 hours of exposure to photo-stress conditions (cool white fluorescent lamp and UV fluorescent lamp 320-400 nm). From the text:
The amorphous Form and the Crystal Form A of Compound BMX samples were exposed at a cool white fluorescent lamp that has an output similar to that specified by ISO 10977 and UV fluorescent lamp with a spectral distribution from 320 nm to 400 nm for evaluating the photo stress stability.

Series [4] can be described thus: Competitive slurry experiments to determine the most stable polymorphic form. The settings on record: competitive slurry in 2-propanol, XRPD. As for the experimental part: No material of Crystal Form C, D, or E was available since these could not be reproduced. The competitive slurry was performed using Crystal Forms B, […], F and poorly crystalline material, with 10 mg of each form being added in two 1 mL vials.
The competitive slurry experiment in 2-methyl tetrahydrofuran gave a clear solution and the experiment in 2-propanol gave a white slurry.

Series [5] is described as follows: Stability of polymorphic forms stored at 40° C./75% RH for 4 days. The protocol: Both Crystal Form A and Crystal Form D were found in different solvent combinations using different crystallization techniques. […] Crystal Form C was only observed once, being found in a slurry experiment at 50° C. in DMSO/Ethanol (60/40-%). […] All plates were stored at 40° C./75% RH for 4 days in order to determine the stability of the polymorphic forms.

Series [6] can be described thus: Solubility of amorphous material of Compound BMX by the shake flask method. The settings on record: for solubility at 24 h / solubility at 15 min: organic solvent or mixture, thermodynamic from solid, shake flask. The protocol: The solubility of amorphous material of Compound BMX was determined by the shake flask method. The amorphous material was obtained by dissolving 500 mg of the Crystal From A of Compound BMX in 10 mL dichloromethane, this solution was evaporated to dryness in vacuum conditions (0 mbar, RT).
The solvents for the solubility determination were selected based on the Principal Component Analysis (PCA) of properties, which means that some pharmaceutically unattractive solvents were included to create a better understanding of the parameter space. The Principal Component Analysis focusses on polarity, polarizability and hydrogen bonding.
Subsequently, the samples were filtered and diluted for LC analysis and the concentration is determined using a calibration line.

The nature of series [7]: Stability test of Form B slurried in water.
The mark [8] stands for this setting: solvent Methyl-tert-butyl ether.

Consider `COc1ccc(COc2c(/C=C/C(=O)NO)ccc(OC)c2CC=C(C)C)cc1` [Crystal Form A], for which, in series [1] (0% to 95% RH, 10% per step, 1 hour per increment), the “Mass uptake (DVS)” value is given as 0.035 wt %. Moreover, the “Hygroscopicity (in words)” value in series [1] (DVS) was “non-hygroscopic; also recorded: not hygroscopic”. Moreover, the “Stability under humid conditions (XRPD, DSC/TGA, microscopy pre and post DVS)” value in series [1] (after DVS up to 95% RH) is “stable under these humid conditions”. The Solubility in series [2] (Ethyl acetate, room temperature, 24 hours) was 20780 µg/mL (≈ 52.3 mM). In addition, the solubility at 24 h in series [2] (FaSSIF, pH 6.5, fassif, pH 6.5, room temperature, 24 hours) is 10 µg/mL (≈ 0.0252 mM); in series [2] (FeSSIF, pH 5.8, fessif, pH 5.8, room temperature, 24 hours), 180 µg/mL (≈ 0.453 mM); in series [2] (ethyl acetate, organic solvent or mixture, room temperature, 24 hours), 20800 µg/mL (≈ 52.3 mM). Also, the “Solubility (in words)” value in series [2] (Hexane, water, FaSSGF, FASSIF and phosphate buffer pH 7.4) is “insoluble”. The “Changes in polymorphic form after solubility test (XRPD)” value in series [2] (all solvents/buffers of Table 6, 24 hours at room temperature) is listed as “No changes in polymorphic form were observed”. The Degradation in series [3] was found to be 10%. In series [3] (photo-stress, 48 hours), the “Stability under stress conditions compared with the amorphous form” value is recorded as “significantly more stable than the amorphous form”. Moreover, the “Most stable polymorphic form” value is recorded as “most stable form” in series [4] and “thermodynamically most stable form” in series [4] (listed as Cystal Form A).
In the case of `COc1ccc(COc2c(/C=C/C(=O)NO)ccc(OC)c2CC=C(C)C)cc1` [amorphous material of Compound BMX], the “Stability of the polymorphic form” value in series [5] (listed as amorphous solid) is on record as “converted into a new polymorphic form: Crystal Form E”. The compound further registered a Degradation in series [3] (listed as amorphous form) of 20%. In addition, the solubility at 24 h in series [6] (solvent 2-Ethly-1-butanol) amounted to 8800 µg/mL (≈ 22.1 mM); in series [6] (solvent Anisole), 9700 µg/mL (≈ 24.4 mM); in series [6] (solvent Ethyl sulfoxide) it was 6900 µg/mL (≈ 17.4 mM); in series [6] (setting [8]), 3300 µg/mL (≈ 8.3 mM). The solubility at 15 min was 10000 to 33000 µg/mL (≈ 25.2 to 83 mM) in series [6] (solvent Acetonitrile), 31000 to 94000 µg/mL (≈ 78 to 236 mM) in series [6] (solvent Dimethyl sulfoxide), 10000 to 33000 µg/mL (≈ 25.2 to 83 mM) in series [6] (solvent Ethyl butyl ketone) and 31000 to 94000 µg/mL (≈ 78 to 236 mM) in series [6] (solvent Methanol). In addition, the USP classification result in series [6] (solvent 2-Ethly-1-butanol) is given as “Slightly soluble”; in series [6] (solvent Acetonitrile), “Sparingly soluble”; in series [6] (solvent Anisole), “Slightly soluble”; in series [6] (solvent Dimethyl sulfoxide), “Soluble”; in series [6] (solvent Ethyl butyl ketone) it was “Sparingly soluble”; in series [6] (solvent Ethyl sulfoxide) it was “Slightly soluble”. The USP classification result in series [6] (solvent Methanol) is listed as “Soluble”; in series [6] (setting [8]) it was “Slightly soluble”; in series [6] (solvent Water), “Practically insoluble”; in series [6] (solvent n-Heptane), “Practically insoluble”.
For `COc1ccc(COc2c(/C=C/C(=O)NO)ccc(OC)c2CC=C(C)C)cc1` [Crystal Form B], the “Conversion on seeding with Crystal Form A” value in series [7] (seeds of Crystal Form A, slurrying at 50° C.) is “could not be converted into Crystal Form A”. In addition, the “Stability in water (in words)” value in series [7] (slurry in water) was “very stable in water; also recorded: remained stable in water”. In addition, the “Changes in XRPD on slurrying in water” value in series [7] (water, room temperature, 4 hours, 24 hours, 4 days and 7 days) is recorded as “No changes were observed in the XRPD”.
Take `COc1ccc(COc2c(/C=C/C(=O)NO)ccc(OC)c2CC=C(C)C)cc1` [Crystal Form C]: the “Stability of the polymorphic form” value in series [5] was “unstable and converted into Crystal Form D soon”; in series [5] (listed as Cystal Form C), “not a stable form and converted into polymorphic Crystal Form D”.

Values taken from patent US20250333376A1, “CRYSTAL FORMS OF BMX AND PREPARATION THEREOF” (Novelwise Pharmaceutical Corporation, priority 2024, published 2025).
